The record followed here is PubChem BioAssay AID651856 (Broad Institute, 2012).

The IC90 is the concentration needed for an effect of 90%.

The test system of this experiment is non-replicating M. tuberculosis, luciferase expression. In words: non-replicating M. tuberculosis inhibition, confirmation, luciferase expression (AID 651856).

SMILES strings stand for the structures.

`Clc1ccc(-c2nnc(SCc3cn(Cc4ccccc4)nn3)o2)cc1`: the IC90 was 4 µM. The result for `O=S(=O)(Cc1cn(Cc2ccccc2)nn1)c1nnc(-c2ccc(Cl)cc2)o1` reads 8 µM; that for `O=S(Cc1cn(Cc2ccc(F)cc2)nn1)c1nnc(-c2ccc(Cl)cc2)o1` (stereo not drawn), 4 µM.

In the case of `O=S(=O)(Cc1ccccc1)c1nnc(-c2ccccc2)o1`, the IC90 was 4 µM. The result for `O=S(Cc1ccccc1)c1nnc(-c2ccccc2)o1` (stereo not drawn) reads 1 µM. For `Fc1ccc(Cn2cc(CSc3nnc(-c4ccc(Cl)cc4)o3)nn2)cc1`, the 90% effect concentration (IC90) is 2 µM.

`O=S(Cc1cn(Cc2ccccc2)nn1)c1nnc(-c2ccc(Cl)cc2)o1` (stereo not drawn): the concentration for an effect of 90% (IC90) was 1 µM.

In the case of `c1ccc(CSc2nnc(-c3ccccc3)o2)cc1`, the IC90 is 16 µM.
